Among the data in ChEMBL document CHEMBL3797124, “Synthesis of azepino[4,5-b]indol-4-ones via MCR/free radical cyclization and in vitro-in silico studies as 5-Ht₆R ligands” (Bioorg Med Chem Lett, 2016) are inhibition, log(%) and Ki values, retold here.

Broadly, the inhibition is the drop in the measured response relative to a control, in per cent. A higher inhibition goes with a strong effect. A word on the Ki: it is a measure of affinity in units of concentration, obtained from inhibition or displacement. A lower Ki goes with a stronger hold on the target.

SMILES strings stand for the structures.

The target in the first test is 5-hydroxytryptamine receptor 6 (Rattus norvegicus) (UniProt P31388). The test can be described thus: Displacement of [3H]-LSD from rat 5-Ht6 receptor expressed in HEK cells at 10 uM after 60 mins by liquid scintillation counting. The format is cell-based. As to conditions: HEK293. For orientation: Displacement assays read how much labelled ligand stays bound in the presence of the test substance.
Chain of 5-hydroxytryptamine receptor 6 (Rattus norvegicus) (P31388 whole entry): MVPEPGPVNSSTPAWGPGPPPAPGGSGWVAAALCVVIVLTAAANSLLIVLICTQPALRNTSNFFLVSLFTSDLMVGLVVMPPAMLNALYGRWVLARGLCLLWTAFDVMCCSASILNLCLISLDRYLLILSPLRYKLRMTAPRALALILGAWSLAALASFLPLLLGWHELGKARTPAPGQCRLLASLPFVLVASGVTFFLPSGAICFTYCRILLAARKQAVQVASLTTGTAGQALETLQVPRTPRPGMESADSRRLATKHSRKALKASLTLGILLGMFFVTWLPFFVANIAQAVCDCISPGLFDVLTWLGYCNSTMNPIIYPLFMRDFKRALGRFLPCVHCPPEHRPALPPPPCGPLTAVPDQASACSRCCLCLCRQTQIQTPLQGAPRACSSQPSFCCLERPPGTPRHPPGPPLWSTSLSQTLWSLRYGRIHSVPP
Take `COc1cccc(C(c2nnnn2C(C)(C)C)N2CCc3c([nH]c4ccccc34)CC2=O)c1OC` (stereo not drawn): the inhibition amounted to 16% and the log(%) amounted to 1.2.

Consider `CC(C)(C)NC(=O)C(c1ccc(Br)cc1)N1CCc2c([nH]c3ccccc23)CC1=O` (stereo not drawn), for which the inhibition is 66% and the log(%) amounted to 1.82.

For the compound `CN(C)c1ccc(C(C(=O)NC(C)(C)C)N2CCc3c([nH]c4ccccc34)CC2=O)cc1` (stereo not drawn), the inhibition came out at 16% and the log(%) turned out to be 1.2.

Consider `CC(C)(C)NC(=O)C(c1ccc(Cl)cc1)N1CCc2c([nH]c3ccccc23)CC1=O` (stereo not drawn), for which the inhibition amounted to 42% and the log(%) was determined as 1.62.

As to `CC(C)(C)n1nnnc1C(c1ccc2c(c1)OCO2)N1CCc2c([nH]c3ccccc23)CC1=O` (stereo not drawn), the inhibition came to 12% and the log(%) was determined as 1.08.

`COc1cccc(C(C(=O)NC(C)(C)C)N2CCc3c([nH]c4ccccc34)CC2=O)c1OC` (stereo not drawn) registered a log(%) of 1.98.

`Cc1cccc(C)c1NC(=O)C(C1CCCCC1)N1CCc2c([nH]c3ccccc23)CC1=O` (stereo not drawn) displayed an inhibition of 7% and a log(%) of 0.85.

As for `Cc1cccc(C)c1NC(=O)C(c1ccc(Cl)cc1)N1CCc2c([nH]c3ccccc23)CC1=O` (stereo not drawn), the inhibition is 21% and the log(%) was 1.32.

Compound `CC(C)(C)n1nnnc1C(C1CCCCC1)N1CCc2c([nH]c3ccccc23)CC1=O` (stereo not drawn) came in with an inhibition of 2% and a log(%) of 0.3.

As for `Cc1cccc(C)c1-n1nnnc1C(c1ccc(Cl)cc1)N1CCc2c([nH]c3ccccc23)CC1=O` (stereo not drawn), the inhibition was 19% and the log(%) stood at 1.28.

Compound `Cc1cccc(C)c1-n1nnnc1C(C1CCCCC1)N1CCc2c([nH]c3ccccc23)CC1=O` (stereo not drawn) displayed an inhibition of 3% and a log(%) of 0.48.

With `O=C(NC1CCCCC1)C(c1ccc(Cl)cc1)N1CCc2c([nH]c3ccccc23)CC1=O` (stereo not drawn), the inhibition was found to be 15% and the log(%) is 1.18.

In turn, `CC(C)(C)n1nnnc1C(c1ccc(Br)cc1)N1CCc2c([nH]c3ccccc23)CC1=O` (stereo not drawn) gave an inhibition of 57% and a log(%) of 1.76.

`CC(C)(C)NC(=O)C(c1ccc2c(c1)OCO2)N1CCc2c([nH]c3ccccc23)CC1=O` (stereo not drawn) had an inhibition of 7% and a log(%) of 0.85.

As to `CN(C)c1ccc(C(c2nnnn2C(C)(C)C)N2CCc3c([nH]c4ccccc34)CC2=O)cc1` (stereo not drawn), the inhibition was 1% and the log(%) was determined as 0.

Regarding `CSc1ccc2c(c1)C(N1CCN(C)CC1)Cc1ccccc1S2` (stereo not drawn), the inhibition was determined as 100% and the log(%) stood at 2.

In turn, `CC(C)(C)NC(=O)C(C1CCCCC1)N1CCc2c([nH]c3ccccc23)CC1=O` (stereo not drawn) showed an inhibition of 10% and a log(%) of 1.

Consider `CC(C)(C)n1nnnc1C(c1ccc(Cl)cc1)N1CCc2c([nH]c3ccccc23)CC1=O` (stereo not drawn), for which the inhibition came out at 41% and the log(%) was determined as 1.04.

In the case of `O=C1Cc2[nH]c3ccccc3c2CCN1C(c1ccc(Cl)cc1)c1nnnn1C1CCCCC1` (stereo not drawn), the inhibition turned out to be 17% and the log(%) came out at 1.23.

In a further test the target is 5-hydroxytryptamine receptor 6 (Rattus norvegicus, UniProt P31388). The experiment in a line: Displacement of [3H]-LSD from rat 5-Ht6 receptor expressed in HEK cells after 60 mins by liquid scintillation counting. Format: cell-based, HEK293.
Chain of 5-hydroxytryptamine receptor 6 (P31388 whole entry): as above
Conditions: not given
Take `COc1cccc(C(C(=O)NC(C)(C)C)N2CCc3c([nH]c4ccccc34)CC2=O)c1OC` (stereo not drawn): the Ki is 211 nM.
